{"source": "patent US20260159546A1", "about": "“PHARMACEUTICAL COMPOSITION FOR TREATING SEPSIS INCLUDING DUAL ALARMIN-RECEPTOR-SPECIFIC TARGETING PEPTIDE” (Industry-University Cooperation Foundation Hanyang …, priority 2024, published 2026)", "molecules": {"B1": {"name": "rHMGB1: recombinant alarmin protein high-mobility group protein B1 (protein, UniProt P09429 1-215, looked up)", "High mobility group protein B1": "MGKGDPKKPRGKMSSYAFFVQTCREEHKKKHPDASVNFSEFSKKCSERWKTMSAKEKGKFEDMAKADKARYEREMKTYIPPKGETKKKFKDPNAPKRPPSAFFLFCSEYRPKIKGEHPGLSIGDVAKKLGEMWNNTAADDKQPYEKKAAKLKEKYEKDIAAYRAKGKPDAAKKGVVKAEKSKKKKEEEEDEEDEEDEEEEEDEEDEDEEEDDDDE", "modifications": "Flag tag"}}, "format_in_all_cases": "cell-based, mouse", "key": {"BMDMs [1]": {"tested_on": "BMDMs", "test": "In vitro cell viability study (Quanti-Max) on BMDMs", "experimental": "Primary bone marrow-derived macrophages (BMDMs) were isolated from female C57BL/6 mice and cultured for five to seven days in a medium supplemented with macrophage-colony stimulating factor (M-CSF) for differentiation. HEK293T cells were acquired from the American Type Culture Collection (ATCC). Both BMDMs and HEK293T cells were cultured in Dulbecco's modified Eagle's medium (DMEM, GenDEPOT Inc., USA) supplemented with 10% fetal bovine serum (FBS), penicillin (100 U/mL), and streptomycin (100 μg/mL).\nBMDMs were plated on 96-well plates (SPL Life Science Co. Ltd., Republic of Korea) at a density of 2×10^4 cells/well and incubated in complete DMEM for 18 h. Thereafter, the cells were treated with various concentrations of H-T, H-R, P-T, P-M peptides, control, TMR, or TMR using Abs Lipo. After 48 h of incubation, the medium was replaced with 100 μl of DMEM and the Quanti-Max solution (10% of each media volume). After two hours of incubation at 37° C. and 5% CO2, the absorbance of the plates including the Quanti-Max solution was measured at 450 nm using the MMR SPARK® microplate reader (TECAN Group Ltd., Switzerland)."}, "[2]": {"tested_on": "LPS-induced cytokine production in BMDMs", "test": "Cytokine ELISA in supernatant of LPS-treated BMDMs", "conditions": "LPS 100 ng/mL, 18 h", "from_the_text": "FIG. 2. Preparation of TLR4/MD2/RAGE-interacting motifs of HMGB1 or PTX3; • (A and B) Schematic diagram of HMGB1 (A) and PTX3 (B) domains. Glutathione s-transferase (GST)-tagged truncates including the TLR4-, RAGE-, or MD2-binding domains of HMGB1 or PTX3 were constructed. […] HEK293T cells transfected with the GST-tagged constructs in combination with HA-TLR4, Myc-RAGE or His-MD2 were confirmed by GST-pulldown. Western blots of WCLs and eluates after GST-pulldown are shown, using glyceraldehyde 3-phosphate dehydrogenase (GAPDH) as a loading control in WCLs. Based on the pulldown binding results, TLR4-, MD2-, and RAGE-targeted peptides were constructed and prepared as an H-T, H-R, P-T, or P-M peptide (indicated in panels A and B); • (C) BMDMs were incubated with the H-T, H-R, P-T, or P-M peptide at the indicated concentrations for 48 h, and then cell viability was measured by a cell viability assay. […] They were immunoprecipitated with αFlag for two hours, separated by sodium dodecyl sulfate-polyacrylamide gel electrophoresis (SDS-PAGE), and evaluated by immunoblotting; • (E) Competition between rHMGB1 (top) or PTX3 (bottom) and the constructed peptides for their respective receptors. […] TNF-α, IL-6, IL-12p40, and IL-10 levels in the supernatant of the indicated peptide-treated BMDMs, along with LPS (100 ng/mL, 18 h), were determined by ELISA. […]"}, "BMDMs [3]": {"tested_on": "BMDMs", "test": "Cytokine ELISA in BMDMs stimulated with recombinant alarmins", "conditions": "BMDMs treated with recombinant alarmin 2, 5 μg/mL", "from_the_text": "FIG. 1. Interaction of extracellular high-mobility group protein B1 (HMGB1) and (pentraxin 3) PTX3 with toll-like receptor 4 (TLR4) or receptor for advanced glycation end products (RAGE) in murine macrophages; • (A and B) Release of HMGB1 (A) or PTX3 (B) from murine macrophages after stimulation with lipopolysaccharide (LPS). LPS-induced HMGB1 (A) or PTX3 (B) release from murine macrophages. Immunoblots (IB) for HMGB1 and PTX3 in the cell lysates in LPS-treated bone marrow-derived macrophages (BMDMs) and the supernatant at indicated time points after LPS (100 ng/ml); • (C and D) Interaction between HMGB1 (C) or PTX3 (D) with receptors thereof. HEK293T cells were transfected with constructs, and cell lysates were immunoprecipitated with a Flag-tag-specific antibody and analyzed by immunoblotting (IB) with the indicated antibodies. […] Immunoprecipitants and whole cel lysates (WCL) were analyzed by immunoblotting with the indicated antibodies; • (E) TNF-α, IL-6, IL-12p40, and IL-10 levels in the supernatant of LPS (100 ng/ml, 18 h) or recombinant alarmins (rHMGB1 or rPTX3, each (2, 5 μg/mL))-treated BMDMs determined by enzyme-linked immunosorbent assay (ELISA). The data shown represents at least three independent experiments (n≥3), and bars denote mean±SEM (****p<0.001), and significance was measured by two-way analysis of variance (ANOVA); […]"}, "[4]": {"conditions": "BMDMs, 48 h incubation, various concentrations"}}, "note": "Read-outs that look alike come from different tables or passages of the source. Ends that are not written are not given here.", "data": [{"molecule": "AAYRAKGKPD [H-R]", "values": [{"measurement": "viability of BMDMs", "setting": "BMDMs [1]; [4]", "result": "almost no impact"}]}, {"molecule": "ALAAVLEELR [P-M]", "values": [{"measurement": "viability of BMDMs", "setting": "BMDMs [1]; [4]", "result": "almost no impact"}]}, {"molecule": "FKDPNAPKRP [H-T]", "values": [{"measurement": "viability of BMDMs", "setting": "BMDMs [1]", "result": "almost no impact"}]}, {"molecule": "PAEARLTSAL [P-T]", "values": [{"measurement": "viability of BMDMs", "setting": "BMDMs [1]; [4]", "result": "almost no impact"}]}, {"molecule": "TMR peptide: fusion peptide of SEQ ID NO: 2 to 5 joined by GG linkers, FKDPNAPKRPGGAAYRAKGKPDGGPAEARLTSALGGALAAVLEELR", "values": [{"measurement": "production of inflammatory cytokines (TNF-α, IL-6, IL-12p40)", "setting": "[2]", "result": "significantly reduced"}]}, {"molecule": "rPTX3: recombinant alarmin protein pentraxin 3 [reference compound]", "values": [{"measurement": "levels of TNF-α, IL-6, IL-12p40 and IL-10", "setting": "BMDMs [3]", "result": "elevated levels"}]}, {"molecule": "B1", "values": [{"measurement": "levels of TNF-α, IL-6, IL-12p40 and IL-10", "setting": "BMDMs [3]", "result": "elevated levels"}]}]}
